In publication PMC7911516, “Investigation of the Factors Responsible for the Poor Oral Bioavailability of Acacetin in Rats: Physicochemical and Biopharmaceutical Aspects” (Pharmaceutics, 2021):

Experiment: Parallel artificial membrane permeability assay (PAMPA)
Type: in vitro ADME
Conditions: GIT PAMPA Double Sink
Experimental: Simulated intestinal fluid (SIF) was prepared by dissolving 3 mM sodium taurocholate and 0.1% (w/v) pancreatin in phosphate buffer (final pH = 7.0). The solubility of acacetin was measured by adding excessive amounts of acacetin into glass vials containing 1.5 mL of water, pH 7.4 phosphate buffer, SGF, and SIF. […] The samples were centrifuged at 16,000× g for 5 min, and the supernatant was passed through a 0.20-μm syringe filter to remove excess acacetin. Further, the concentration of acacetin in the filtrate was determined using the LC-MS/MS method. […] Finally, the acacetin concentrations in the octanol and water layers were determined using the LC-MS/MS method. […] The PAMPA was conducted using a commercially available PAMPA kit (GIT PAMPA Double Sink; pION Inc., Massachusetts, MA, USA) according to the manufacturer's protocol. The permeability was calculated using pION PAMPA Explorer ver. 3.8 software (pION Inc., Massachusetts, MA, USA).

CNC(=C[N+](=O)[O-])NCCSCc1ccc(CN(C)C)o1 [ranitidine, reference compound]
Papp: 0.411 ×10⁻⁶ cm/s
